Data published in US5424441A, “N-aralkyl-and N-heteroaralkyl-aminoalkanephosphinic acids” (Ciba-Geigy Corporation, priority 1994, dated 1995).

System: "epileptic-like" discharges from pyramidal cells
Test: penicillin-induced "epileptic" hippocampus section preparation, electrophysiological model in vitro
Type: cell-based
Conditions: read-out: concentration at which "epileptic-like" discharges from pyramidal cells are inhibited

NCC(CC(=O)O)c1ccc(Cl)cc1 (stereo not shown) [baclofen]
minimal effective concentration: 6 µM
